According to patent US9403702B1, “Commodity water purifier” (A BETTER LIFE WORLDWIDE, LLC, priority 2015, dated 2016):
Where two headings read alike, the source gives them in different places.

Experiments:
[1] = bound to proteins on skin, mucosa, mouth tissue and teeth; cited from earlier work
[2] = test system: gram-positive and gram-negative bacteria; settings: in vitro; cited from earlier work
[3] = test system: gram-positive and gram-negative bacteria; settings: typical; cited from earlier work
[4] = water, cited from earlier work
[5] = Solubility in water; type: physicochemical; settings: inventors' finding for CXC
Excerpt: Although the biological properties of CX are valuable its engineering properties are somewhat challenging. […] However CX is crystalline, and becomes impermeable when formed into a filter. The impermeability renders the filter properties moot. And even if the filter properties remained intact, the presence of CX in effluent would raise the standard for registration with the EPA and for management of the effluent.
In an effort to resolve that problem, U.S. Pat. No. 7,427,409 discloses use of a hydrate, i.e., CX having 1.3 water molecules per chlorhexidine molecules, and the composition is an amorphous material from which a permeable filter can be manufactured. […] The present invention contemplates use of CXH for any value of n for waters of hydration. However the inventors have discovered an unexpected disadvantage of CXH, namely that a small amount of CXH is eroded from the amorphous solid when fluid passes over or through it and thus exits with the effluent. Any water purifier that allows such emissions must be registered with the EPA as a pesticide, as opposed to a purifier, moreover the maker and/or marketer of the filter would be responsible for the ultimate fate and effects of the CXH after it leaves the filter. Moreover CXH decomposes when heated, and the water of hydration evaporates at 96° C. […]

## [H]/N=C(\N/C(=N/[H])NCCCCCCNC(=N)NC(=N)Nc1ccc(Cl)cc1)Nc1ccc(Cl)cc1 [CX, N,N″″1,6-Hexanediylbis[N′-(4-chlorophenyl)(imidodicarbonimidic diamide)]]
[1]
  persistence of activity: ≥ 48 h
[2]
  time to kill virtually all gram-positive and gram-negative bacteria: ≤ 30 s
[3]
  time of uptake of CX into the cells: ≤ 20 s
[4]
  solubility: practically insoluble

## [H]/N=C(\N/C(=N/[H])NCCCCCCNC(=N)NC(=N)Nc1ccc(Cl)cc1)Nc1ccc(Cl)cc1 [CXH, chlorhexidine hydrate]
[4]; hydrate
  solubility: essentially insoluble

## chlorhexidine citrate [CXC]
[5]
  solubility: low solubility
